Laboratory results from patent publication US20240350458A1, “14-3-3 PROTEIN MODULATORS AS ANTITUMOR AGENTS” (priority 2021, published 2024).

What was measured:
Assay type in all cases: cell-based
TC-32 = experiment: MTT proliferation assay, Ewing sarcoma; conditions: Homo sapiens
Description: (§1) The antiproliferative activity was assessed by MTT proliferation assay (Table III) The anticancer activity was also investigated in a rare and lethal cancer (i.e. anaplastic thyroid cancer) by the use of three ATC-derived cell lines (Sw, FRO, 8505c). Again, the IC50 value after 72 h exposure was in the range of 10 to 50 nM. The same trend was also observed in four melanoma cell lines A2058, M14 (genotype BRAFV600E), SKMEL 197 e MEWO (genotype BRAF wild-type).
(§2) Table III IC50 expressed in μM and Emax (at 30 μM) for FC86 after 72 h exposure, were calculated by MTT assay

6647 = experiment: MTT proliferation assay, Ewing sarcoma
Description: as §1, §2

HBL1 = experiment: MTT proliferation assay, B-cell lymphoma cell line; conditions: HBL1, 72 h of drug incubation
Description: (§3) All the above compounds were tested in vitro for their anticancer activity against a panel of eight B-cell lymphoma cell lines by MTT proliferation assay. The tested cell lines belonging to mantle cell lymphoma (MCL: REC1, Z138), activated B-cell diffuse large B-cell lymphoma (ABC-DLBCL: R11, HBL1, U2932, TMD8), germinal center B-cell diffuse large B-cell lymphoma (GCB-DLBCL: SU-DHL-10, FARAGE) subtypes. In overall, MCL cell lines present Cyclin D1 overexpression, while ABC- and GCB-DLBCL's proliferation is BCR and BCL6/HDACs driven, respectively. At the RNA level, all tested lymphoma cell lines were characterized by an overexpression of 14-3-3 zeta as reported for B-cell lymphomas resistant to chemotherapeutic regimen.

U2932 = experiment: MTT proliferation assay, B-cell lymphoma cell line; conditions: Homo sapiens; U2932, 72 h of drug incubation
Description: as §3

RI1 = experiment: MTT proliferation assay, B-cell lymphoma cell line; conditions: Ri-1; RI1, 72 h of drug incubation
Description: as §3

Z138 = experiment: MTT proliferation assay, B-cell lymphoma cell line; conditions: Homo sapiens, Z-138; Z138, 72 h of drug incubation
Description: as §3

SUDHL10 = experiment: MTT proliferation assay, B-cell lymphoma cell line; conditions: Homo sapiens, SU-DHL10; SUDHL10, 72 h of drug incubation
Description: as §3

REC1 = experiment: MTT proliferation assay, B-cell lymphoma cell line; conditions: Homo sapiens; REC1, 72 h of drug incubation
Description: as §3

FARAGE = experiment: MTT proliferation assay, B-cell lymphoma cell line; conditions: 72 h of drug incubation
Description: as §3

TMD8 = experiment: MTT proliferation assay, B-cell lymphoma cell line; conditions: Homo sapiens; TMD8, 72 h of drug incubation
Description: as §3

Compound `Cc1ccc(S(=O)(=O)Nc2ccc3c(c2)/C(=C/c2cccs2)C(=O)N3)cc1` [FC86, N-[(3Z)-2-oxo-3-(thiophene-2-ylmethylidene)-2,3-dihydro-1H-indol-5-yl]-4-methylbenzenesulfonamide] has an Emax at 30 µM (TC-32; Ewing Sarcoma TC-32, 30 μM, 72 h) of 75%, an IC50 (TC-32; Ewing Sarcoma TC-32, 72 h exposure) of 0.03 µM and an Emax at 30 µM (6647; Ewing Sarcoma 6647, 30 μM, 72 h) of 75%. It also gave an IC50 (6647; Ewing Sarcoma 6647, 72 h exposure) of 0.09 µM, an IC50 (HBL1) of 0.025 µM and an IC50 (U2932) of 0.02 µM. For the same compound, the IC50 (RI1) was 0.025 µM, the IC50 (Z138) was 0.025 µM and the IC50 (SUDHL10) was 0.025 µM. The IC50 (REC1) was 0.01 µM, the IC50 (FARAGE) was 0.015 µM and the IC50 (TMD8) was 0.02 µM.
